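Method: 48-hour compound exposure of cells in 96-well plates, five concentrations, linear interpolation of endpoints. At the GI50, growth is halved. TGI: concentration producing complete growth inhibition.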

Among the test systems are UACC-62 melanoma; RPMI-8226 leukemia; SF-539 CNS; NCI-H460 lung; HT29 colon; HL-60(TB) leukemia; SK-MEL-28 melanoma; OVCAR-8 ovarian; A549 NSCLC; NCI-H226 lung.
Common to all, as to assay: NCI tumour cell line growth inhibition, 48 h

As for `COc1ccccc1C1=C(Nc2ccccc2)C(=O)NC1=O`, the GI50 with UACC-62 melanoma, with RPMI-8226 leukemia, with SF-539 CNS, with NCI-H460 lung, in the experiment on HT29 colon and in the experiment with HL-60(TB) leukemia was above 25 µM throughout. The GI50 with SK-MEL-28 melanoma, in the experiment on OVCAR-8 ovarian and with A549 NSCLC was above 25 µM each time. The TGI in the experiment with UACC-62 melanoma, with RPMI-8226 leukemia, in the experiment on SF-539 CNS, in the experiment on NCI-H460 lung, with HT29 colon and in the experiment on HL-60(TB) leukemia was above 25 µM throughout. The TGI in the experiment on SK-MEL-28 melanoma, with OVCAR-8 ovarian and with A549 NSCLC was above 25 µM each time.
Take `COc1cccc(CSCC(=O)O)c1`: the TGI in the experiment on UACC-62 melanoma, in the experiment with RPMI-8226 leukemia, with SF-539 CNS, in the experiment with NCI-H226 lung, in the experiment with NCI-H460 lung and with HT29 colon was above 100 µM throughout. Besides, the TGI with SK-MEL-28 melanoma, in the experiment on OVCAR-8 ovarian and in the experiment with A549 NSCLC was above 100 µM in each case.
`S=C(Nc1ccc(N=Nc2ccccc2)cc1)SCc1ccccc1`: the TGI was found to be 31.8 µM in the experiment on UACC-62 melanoma; 33.3 µM in the experiment on RPMI-8226 leukemia; 34.5 µM with SF-539 CNS; 39 µM with NCI-H226 lung; 39.5 µM in the experiment with NCI-H460 lung; 52.1 µM in the experiment on HT29 colon. In addition, the TGI came out at 38 µM in the experiment on SK-MEL-28 melanoma, 22.5 µM with OVCAR-8 ovarian and 35.8 µM with A549 NSCLC.
Take `COc1ccc2c(c1)CC[C@@H]1[C@@H]2CC[C@]2(C)[C@@H](NC(=O)/C=C/c3ccc(O)c(O)c3)CC[C@@H]12`: the GI50 is 2.12 µM in the experiment with UACC-62 melanoma; 1.08 µM in the experiment on RPMI-8226 leukemia; 4.1 µM in the experiment on SF-539 CNS; 2.34 µM in the experiment on NCI-H226 lung; 2.7 µM with NCI-H460 lung; 4.74 µM in the experiment on HT29 colon. For the same compound, the GI50 was 18.5 µM in the experiment with SK-MEL-28 melanoma, 4.2 µM with OVCAR-8 ovarian and 4.58 µM with A549 NSCLC. Moreover, the TGI in the experiment with UACC-62 melanoma was 6.19 µM; in the experiment on RPMI-8226 leukemia, 9.79 µM; in the experiment with SF-539 CNS, 15.6 µM; in the experiment with NCI-H226 lung it was 6.45 µM; with NCI-H460 lung it was 9.93 µM; in the experiment with HT29 colon it was above 100 µM. Further, the TGI is above 100 µM in the experiment with SK-MEL-28 melanoma, 16.7 µM with OVCAR-8 ovarian and 17.6 µM in the experiment with A549 NSCLC.
`C#CC[N+](C)(CC#C)CC#C`: the TGI in the experiment on UACC-62 melanoma, with RPMI-8226 leukemia, with NCI-H460 lung, in the experiment with HT29 colon, with HL-60(TB) leukemia and in the experiment on SK-MEL-28 melanoma was above 100 µM in each case. For the same compound, the TGI in the experiment on OVCAR-8 ovarian and with A549 NSCLC was above 100 µM each time.
As to `NC(=O)c1ccccc1NC(=O)C(=O)Cc1nc2ccccc2[nH]c1=O`, the TGI in the experiment with UACC-62 melanoma, in the experiment on RPMI-8226 leukemia, in the experiment on SF-539 CNS, with NCI-H460 lung, in the experiment on HL-60(TB) leukemia and with SK-MEL-28 melanoma was above 100 µM throughout. For the same compound, the TGI in the experiment on OVCAR-8 ovarian and with A549 NSCLC was above 100 µM each time.
Take `COC(=O)C(=CNC(N)=O)C(=O)OC`: the TGI with UACC-62 melanoma, in the experiment on RPMI-8226 leukemia, in the experiment with SF-539 CNS, in the experiment on NCI-H460 lung, in the experiment with HT29 colon and with SK-MEL-28 melanoma was above 100 µM each time. Moreover, the TGI in the experiment on OVCAR-8 ovarian and in the experiment on A549 NSCLC was above 100 µM throughout.
Take `COc1cc(OC)c2nccc(NCCCN(C)C)c2c1[N+](=O)[O-]`: the TGI in the experiment with UACC-62 melanoma, in the experiment on RPMI-8226 leukemia, with SF-539 CNS, in the experiment on NCI-H460 lung, with HT29 colon and with HL-60(TB) leukemia was above 100 µM throughout. Besides, the TGI in the experiment on SK-MEL-28 melanoma, with OVCAR-8 ovarian and in the experiment with A549 NSCLC was above 100 µM throughout.
Consider `CC(=O)c1c(CN(C)c2ccccc2)n([O-])c2ccccc2[n+]1=O`, for which the GI50 in the experiment on UACC-62 melanoma was 23.9 µM; in the experiment with RPMI-8226 leukemia it was 13.2 µM; in the experiment with SF-539 CNS, 28.7 µM; in the experiment with NCI-H226 lung, 20.2 µM; in the experiment with NCI-H460 lung, 33.6 µM; in the experiment on HT29 colon, 20.4 µM. The GI50 is 38.7 µM in the experiment on SK-MEL-28 melanoma, 43.1 µM in the experiment on OVCAR-8 ovarian and 47.1 µM with A549 NSCLC. The TGI was 83.8 µM in the experiment with UACC-62 melanoma; 40.9 µM in the experiment with RPMI-8226 leukemia; 86.6 µM in the experiment with SF-539 CNS; 67.5 µM in the experiment with NCI-H226 lung; above 100 µM in the experiment on NCI-H460 lung; 49.2 µM in the experiment with HT29 colon. The TGI in the experiment with SK-MEL-28 melanoma, with OVCAR-8 ovarian and in the experiment with A549 NSCLC was above 100 µM each time.
Regarding `Nc1nc(N)c(C=Nc2ccc(Br)cc2)c(Nc2ccc(Br)cc2)n1`, the GI50 with UACC-62 melanoma was 12.1 µM; with RPMI-8226 leukemia, 16.6 µM; with SF-539 CNS it was 12.1 µM; in the experiment on NCI-H460 lung, 4.39 µM; in the experiment on HT29 colon, 5.81 µM; in the experiment on HL-60(TB) leukemia it was 15.6 µM. The GI50 with SK-MEL-28 melanoma was 12.3 µM; in the experiment on OVCAR-8 ovarian it was 15.2 µM; in the experiment with A549 NSCLC, 12.4 µM. Besides, the TGI in the experiment with UACC-62 melanoma is 24.4 µM; in the experiment on RPMI-8226 leukemia, 38.7 µM; in the experiment with SF-539 CNS it was 24.4 µM; in the experiment on NCI-H460 lung, 20.1 µM; in the experiment on HT29 colon, above 100 µM; in the experiment with HL-60(TB) leukemia, 49.2 µM. In addition, the TGI amounted to 24.7 µM with SK-MEL-28 melanoma, 40.7 µM with OVCAR-8 ovarian and 29.6 µM with A549 NSCLC.
`CCOC(=O)c1c(C)n(Cc2ccccc2)c2c1cc(O)c1[nH]c(Cc3ccccc3)nc12`: the GI50 was 23.8 µM with UACC-62 melanoma; 11.5 µM in the experiment with RPMI-8226 leukemia; 17.1 µM in the experiment on SF-539 CNS; 12.1 µM in the experiment with NCI-H226 lung; 4.23 µM with NCI-H460 lung; 6.79 µM in the experiment with HT29 colon. The figures for the GI50 in the experiment on SK-MEL-28 melanoma, in the experiment on OVCAR-8 ovarian and in the experiment with A549 NSCLC were 24.3 µM, 29.6 µM and 12.4 µM, respectively. Also, the TGI in the experiment with UACC-62 melanoma was above 100 µM; in the experiment on RPMI-8226 leukemia, above 100 µM; with SF-539 CNS, above 100 µM; with NCI-H226 lung, above 75.9 µM; in the experiment with NCI-H460 lung, above 100 µM; in the experiment on HT29 colon, above 34.4 µM. For the same compound, the TGI was above 100 µM with SK-MEL-28 melanoma, above 100 µM in the experiment on OVCAR-8 ovarian and 65.7 µM in the experiment on A549 NSCLC.
